Source: US20190269721A1, “METHODS AND COMPOSITIONS FOR DEGRADING CALCIUM PHOSPHATE AND FOR TREATING CALCIFICATION DISORDERS” (MERZ NORTH AMERICA, INC., priority 2016, published 2019)
Read-outs that look alike come from different tables or passages of the source.

Experiments:
[1] = background statement; cited from earlier work
[2] = Degradation of Radiesse calcium hydroxyapatite filler injected into human skin samples (histology of punch biopsy); conditions: for dissolution of calcium hydroxyapatite in the samples: 24 hours after treatment, histology
Experimental: Human skin samples (two living skin samples taken from living tissue in each group) were injected with 0.4 mL Radiesse®.
The samples were then randomized to three treatment groups: topical sodium metabisulfite (25% (w/v) SMB, formulated in petrolatum jelly, about 1-2 grams SMB applied topically to each site on the skin) application with occlusion, intralesional injection of about 0.4-0.8 mL sodium thiosulfate solution (STS, concentration 12.5 g/50 mL i.e., 0.25 g/mL), or both. In the control group, samples were not treated after the Radiesse® injection.
Twenty-four hours after treatment, a 4-mm punch biopsy was obtained and processed for histology to evaluate the presence, absence, or degradation of calcium hydroxyapatite (FIGS. 1E-1F). A blinded, board-certified dermatopathologist read the samples and determined the amount of calcium present in each sample.

[3] = Degradation of Radiesse calcium hydroxyapatite filler injected into porcine samples (histology of punch biopsy); conditions: for dissolution of calcium hydroxyapatite in the samples: 24 hours after treatment, histology
Experimental: In a prospective, single-center clinical trial, 12 porcine samples (pieces of fresh pork shoulder) were injected with Radiesse®, with volumes ranging from 0.4 to 0.8 mL.
The samples were then randomized to three treatment groups: topical sodium metabisulfite (25% (w/v) SMB, formulated in petrolatum jelly: about 1-2 grams SMB applied topically to each site on the skin, 25% (w/v) sodium metabisulfite in 120 ml gel) application with occlusion, intralesional injection of about 0.2 mL of sodium thiosulfate solution (STS, concentration 12.5 g/50 mL, i.e., 0.25 g/mL or 25% (w/v)), or both. The volume ratio of Radiesse:STS solution ranged from 2:1 to 4:1. In the control group, samples were not treated after the Radiesse® injection.
Twenty-four hours after treatment, a 4-mm punch biopsy was obtained and processed for histology to evaluate the presence, absence, or degradation of calcium hydroxyapatite (FIGS. 1A-1D). A blinded, board-certified dermatopathologist read the samples and determined the amount of calcium present in each sample.

[4] = 1-2 h post-STS injection
Experimental: In the prospective histology study, 3 patients received Radiesse® injections (12-20 injections/patient) followed by intralesional STS injection (STS, concentration 12.5 g/50 mL, i.e., 0.25 g/mL) in the abdomen/arm prior to abdominoplasty/brachioplasty. Patients received various Radiesse:STS solution volume ratios ranging from 1:1 to 1:2.5, including patient 1: 0.5 mL CaHA and 0.5 mL STS per site (volume ratio of CaHA:STS is 1:1); patient 2: 0.2 mL CaHA and 0.5 mL STS per site (volume ratio of CaHA:STS is 1:2.5); patient 3: 0.15 mL CaHA and 0.3 mL STS per site (volume ratio of CaHA:STS is 1:2). Tissue was harvested about 1-2 h after STS injection, and a 4-mm punch biopsy was assessed for the presence of CaHA (using hematoxylin-eosin sections).
(§1) At visit 1, deep CaHA nodules were injected using a 32-gauge half inch needle with STS (STS, concentration 12.5 g/50 mL, i.e., 0.25 g/mL; 2 injections; 0.3 mL total). At visit 2 (about 3-4 weeks after visit 1), the patient received subsequent injections using a 32-gauge half inch needle on a luer lock syringe of STS (0.3 mL total) to superficial CaHA nodules.

[5] = Experimental: as §1
[6] = remark: listed apart in the source
Experimental: A filler composition comprising CaHA and HA (hyaluronic acid) was used in a subject. 0.4 ml of CaHA was mixed with 0.4 ml of a highly cohesive HA filler and injected into the volar surface of a human forearm. 0.4 ml of intralesional (IL) STS was injected intralesionally into the treated area. 4 hours after treatment, a 5-mm punch biopsy was obtained. H &E was used to evaluate the presence, absence, or degradation of calcium hydroxyapatite and hyaluronic acid. A blinded, board-certified dermatopathologist read the samples and determined the amount of calcium present in each sample.

[7] = over the next 4 days or so after visit 1

O=C(O)CN(CCN(CC(=O)O)CC(=O)O)CC(=O)O [EDTA, ethylenediaminetetraacetic acid]
ability to dissolve / reduce calcium hydroxyapatite [1]: unsuccessful

O=S([O-])S(=O)(=O)[O-].[Na+].[Na+] [SMB, sodium metabisulfite]
effects on collagen or surrounding structures [2]: no apparent deleterious effects
dissolution of calcium hydroxyapatite in the samples ([2]; human skin samples): reduced, but did not entirely clear
% of calcium hydroxyapatite degraded 24 hrs after treatment [3]: ~50%
dissolution of calcium hydroxyapatite in the samples ([3]; porcine samples): reduced, but did not entirely clear

O=S([O-])([O-])=S.[Na+].[Na+] [STS, sodium thiosulfate]
CaHA dissolution in histologic analyses ([4]; all human tissue samples, CaHA:STS volume ratio 1:1 to 1:2.5): markedly dissolved
CaHA decrease ([4]; human tissue samples): no less than 70%
time until burning sensation resolved ([5]; after immediate ice application): ≤ 1 min
burning sensation upon injection, 10-point pain scale ([5]; both visits): 5-6
erythema [5, 7]: concomitant reduction in erythema
nodule sizes (patient reported) [5, 7]: progressive reduction in nodule sizes
effect on deep nodules ([5]; visit 1, first STS injection, 0.3 mL total, 0.25 g/mL): immediate softening
time until superficial nodules softened and became semi-fluctuant ([5]; visit 2, STS 0.3 mL total): 1 to 2 min
% of calcium hydroxyapatite degraded 24 hrs after treatment ([2]; human skin samples, 0.4 mL Radiesse, STS 0.25 g/mL about 0.4-0.8 mL intralesional, SMB 25% (w/v) topical with occlusion, 4-mm punch biopsy): 100%
dissolution of calcium hydroxyapatite in the samples ([2]; human skin samples): completely dissolved
effects on collagen or surrounding structures ([2]; human tissue, intralesional STS and/or topical SMB): no apparent deleterious effects
reduction of the amount of calcium phosphate tissue filler ([6]; about 24 hours after administration): about 100%
effects on collagen or surrounding structures ([6]; human tissue, intralesional STS): no apparent deleterious effects
dissolution of CaHA in a mixture of CaHA and HA ([6]; reduced time period of 4 hours): completely dissolve
dissolution of calcium hydroxyapatite in the sample ([6]; twenty-four hours after intralesional STS injection, 0.4 ml STS, 0.4 ml CaHA + 0.4 ml HA): completely dissolved
% of calcium hydroxyapatite degraded 24 hrs after treatment ([3]; porcine samples, 0.4-0.8 mL Radiesse, STS 25% (w/v) about 0.2 mL intralesional, SMB 25% (w/v) topical with occlusion, 4-mm punch biopsy): 100%
dissolution of calcium hydroxyapatite in the samples ([3]; porcine samples): completely dissolved

hyaluronidase
ability to dissolve / reduce calcium hydroxyapatite [1]: cannot effectively dissolve
